Assay results from patent US8568736B2, “Polypeptide derivatives of parathyroid hormone (PTH)” (The General Hospital Corporation, priority 1999, dated 2013).
No end group written: not given here.

Experiments:
PTH-1 receptor = molecular target: T1, PTH-1 receptor (Homo sapiens, UniProt Q03431); test: Competition binding with 125I-rPTH(1-34) in HKRK-B7 cells; parameters: expressed in transfected cells; host or cells: LLC-PK1 porcine kidney cells, clone HKRK-B7; conditions: 125I-rPTH(1-34) tracer
T1 sequence (Q03431 27-593): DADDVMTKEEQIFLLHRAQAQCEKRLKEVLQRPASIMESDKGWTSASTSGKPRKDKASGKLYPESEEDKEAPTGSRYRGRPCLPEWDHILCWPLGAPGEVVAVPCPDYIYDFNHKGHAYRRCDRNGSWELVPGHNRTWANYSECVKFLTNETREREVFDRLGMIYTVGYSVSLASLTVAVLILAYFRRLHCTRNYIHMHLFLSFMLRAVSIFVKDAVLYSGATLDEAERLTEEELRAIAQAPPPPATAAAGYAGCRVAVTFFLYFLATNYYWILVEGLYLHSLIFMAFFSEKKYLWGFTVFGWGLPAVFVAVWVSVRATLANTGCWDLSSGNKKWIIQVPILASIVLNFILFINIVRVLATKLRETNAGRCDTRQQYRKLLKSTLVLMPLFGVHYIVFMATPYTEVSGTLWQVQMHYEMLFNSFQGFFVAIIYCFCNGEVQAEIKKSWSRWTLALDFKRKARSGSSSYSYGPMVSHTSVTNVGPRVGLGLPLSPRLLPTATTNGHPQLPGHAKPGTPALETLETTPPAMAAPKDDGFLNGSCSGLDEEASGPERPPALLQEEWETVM
Description: Binding reactions were performed with stably transfected HKRK-B7 cells in 24-well plates. Cells were rinsed with 0.5 mL of binding buffer (50 mM Tris-HCl, 100 mM NaCl, 5 mM KCl, 2 mM CaCl2, 5% heat-inactivated horse serum, 0.5% fetal bovine serum, adjusted to pH 7.7 with HCl), and treated successively with 100 μL binding buffer, 100 μL of binding buffer containing various amounts of unlabeled competitor ligand, and 100 μL of binding buffer containing ca. 100,000 cpm of ^125I-rPTH(1-34) (ca. 26 fmol). Incubations (final volume=300 μL) were at 15° C. for 4 h. Cells were then placed on ice, the binding medium was removed, and the monolayer was rinsed three times with 0.5 mL of cold binding buffer. The cells were subsequently lysed with 0.5 mL 5N NaOH and counted for radioactivity. The nonspecific binding for each experiment was determined by competition with a 1 μM dose of unlabeled rPTH(1-34). The maximum specific binding (B0) was the total radioactivity bound in the absence of unlabeled PTH ligand, corrected for nonspecific binding. Binding IC50 values were determined using nonlinear regression (see below).
All calculations were performed using Microsoft Excel. […] The predicted response (yp) for a given dose (x) of peptide was calculated using the following equation: yp=Min+[(Max−Min)/(1+(EC50/x)^slope)]. […]

[1] = tested on: truncated PTH-1 receptor rP1R-ΔNt; test: cAMP with truncated rat PTH-1 receptor lacking the N-terminal extracellular domain (rP1R-ΔNt); type: cell-based; conditions: COS-7 cells expressing rP1R-ΔNt
[2] = tested on: truncated PTH-1 receptor rP1R-ΔNt; conditions: Luck et al. 1999; cited from earlier work

Substance | improvement in binding affinity as compared to rPTH(1-34) (PTH-1 receptor) | cAMP formation with rP1R-ΔNt (in words) [1] | potency with truncated vs intact rPTH-1 receptor (in words) [2]
AVAEIQLMHARAKHLNSMERVEWLRKKLQDVHNY-NH2 [Peptide #7] | about 2 fold |  | 
AVSEIQLMHNLGKH-NH2 [native rPTH(1-14), AVSEIQLMHNLGKH, reference compound] |  | stimulated cAMP formation | as potent
